The EC50 is the concentration needed to bring the measured effect to its halfway point.

A short description of data set [1]: Microsomal stability, human liver microsomes (predicted hepatic clearance). To be noted: predicted from in vitro microsomal stability data.
The next data set addresses GLP-1R (Homo sapiens, UniProt P43220). In words: GLP-1R activation: cAMP increase in CHO cells stably expressing GLP-1R. It is filed as cell-based.
Setting [2] is: cAMP increase, CHO cells stably expressing GLP-1R, 10 point dose response, 30 minutes incubation, read-out: EC50.

Molecules are shown by their SMILES. Like-named read-outs stand apart in the source and are kept apart here.

Sequence of GLP-1R (P43220 24-463): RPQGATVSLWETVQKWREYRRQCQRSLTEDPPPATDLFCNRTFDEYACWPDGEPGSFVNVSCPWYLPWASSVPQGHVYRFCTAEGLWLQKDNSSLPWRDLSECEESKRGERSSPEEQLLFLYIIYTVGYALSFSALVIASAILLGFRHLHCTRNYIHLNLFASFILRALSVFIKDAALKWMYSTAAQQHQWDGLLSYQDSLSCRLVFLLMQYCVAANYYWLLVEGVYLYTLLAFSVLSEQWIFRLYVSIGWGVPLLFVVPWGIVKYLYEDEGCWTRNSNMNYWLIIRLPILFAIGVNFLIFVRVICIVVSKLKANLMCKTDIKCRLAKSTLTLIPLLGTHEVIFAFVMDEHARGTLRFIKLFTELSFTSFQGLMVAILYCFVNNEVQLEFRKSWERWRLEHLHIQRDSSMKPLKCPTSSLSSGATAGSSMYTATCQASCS

For the compound `CC(=O)N1C[C@H](F)C[C@@H]1Cn1c(Cc2cc(F)c(-c3cccc(OCc4ccc(C#N)cc4F)n3)cc2F)nc2ccc(C(=O)O)cc21` [Example 691], the “Predicted Hepatic Clearance (Pred. Cl.)” value in data set [1] was 4.17 mL/min/kg. In addition, the EC50 at GLP-1R (read-out: EC50) came out at 0.06 nM.
For `COCCn1c(Cc2cc(F)c(-c3cccc(OCc4csc(Cl)c4)n3)cc2F)nc2ccc(C(=O)O)cc21` [Example 692], the “Predicted Hepatic Clearance (Pred. Cl.)” value in data set [1] is 1.83 mL/min/kg. Moreover, the EC50 on GLP-1R (setting [2]) stood at 12.3 nM.
For `COCCn1c(Cc2ccc(-c3cccc(OCc4ccc(Cl)cn4)n3)cc2F)nc2ccc(C(=O)O)cc21` [Example 693] the same measures were 9.67 mL/min/kg and 15.9 nM.
The matching figures for `COCCn1c(Cc2cc(F)c(-c3cccc(OCc4ccn(-c5ccccc5)n4)n3)cc2F)nc2ccc(C(=O)O)cc21` [Example 694]: 1.83 mL/min/kg and 41.7 nM.
For `COC1(Cn2c(Cc3cc(F)c(-c4cccc(OCc5ccc(C#N)cc5F)n4)cc3F)nc3ccc(C(=O)O)cc32)CN(C2COC2)C1` [Example 696] the same measures were 10.8 mL/min/kg and 592 nM.
On to `CN1CC2CC1(Cn1c(Cc3cc(F)c(-c4cccc(OCc5ccc(C#N)cc5F)n4)cc3F)nc3ccc(C(=O)O)cc31)C2` [Example 697], for which the “Predicted Hepatic Clearance (Pred. Cl.)” value in data set [1] is 1.83 mL/min/kg. For the same compound, the EC50 on GLP-1R (read-out: EC50) stood at 25.6 nM.
As for `N#Cc1ccc(COc2cccc(-c3cc(F)c(Cc4nc5ccc(C(=O)O)cc5n4[C@H]4CCC(F)(F)C4)cc3F)n2)c(F)c1` [Example 698], the “Predicted Hepatic Clearance (Pred. Cl.)” value in data set [1] is 6.33 mL/min/kg. Besides, the EC50 at GLP-1R (setting [2]) stood at 63.2 nM.
For `N#Cc1ccc(COc2cccc(-c3cc(F)c(Cc4nc5ccc(C(=O)O)cc5n4[C@@H]4CCC(F)(F)C4)cc3F)n2)c(F)c1` [Example 699] the same measures were 4.67 mL/min/kg and 83.9 nM.
For `N#Cc1ccc(COc2cccc(-c3cc(F)c(Cc4nc5ccc(C(=O)O)cc5n4C4CCCC4(F)F)cc3F)n2)c(F)c1` (stereo not drawn) [Example 700] the same measures were 5.17 mL/min/kg and 3.48 nM.
For `CO[C@H]1CC[C@@H]1n1c(Cc2cc(F)c(-c3cccc(OCc4ccc(C#N)cc4F)n3)cc2F)nc2ccc(C(=O)O)cc21` [Example 701] the same measures were 3.83 mL/min/kg and 145 nM.
On to `N#Cc1ccc(COc2cccc(-c3cc(F)c(Cc4nc5ccc(C(=O)O)cc5n4C4COCCOC4)cc3F)n2)c(F)c1` [Example 702], for which, in data set [1], the “Predicted Hepatic Clearance (Pred. Cl.)” value is 2.67 mL/min/kg. The concentration for a half-maximal effect (EC50) at GLP-1R (setting [2]) is 8.14 nM.
The matching figures for `N#Cc1ccc(COc2cccc(-c3cc(F)c(Cc4nc5ccc(C(=O)O)cc5n4CC45COCC4C5(F)F)cc3F)n2)c(F)c1` (stereo not drawn) [Example 703]: 5.67 mL/min/kg and 1.01 nM.
For `N#Cc1ccc(COc2cccc(-c3cc(F)c(Cc4nc5ccc(C(=O)O)cc5n4CC45COCC4C5)cc3F)n2)c(F)c1` (stereo not drawn) [Example 704] the same measures were 1.83 mL/min/kg and 0.98 nM.
`N#Cc1ccc(COc2cccc(-c3cc(F)c(Cc4nc5ccc(C(=O)O)cc5n4[C@H]4CC[C@@H]4O)cc3F)n2)c(F)c1` [Example 705]: in data set [1], the “Predicted Hepatic Clearance (Pred. Cl.)” value was 13.3 mL/min/kg. Moreover, on GLP-1R (setting [2]), the 50% effective concentration (EC50) came to 73.2 nM.
For `N#Cc1ccc(COc2cccc(-c3cc(F)c(Cc4nc5ccc(C(=O)O)cc5n4Cc4cncs4)cc3F)n2)c(F)c1` [Example 706] the same measures were 12.2 mL/min/kg and 1.31 nM.
Turning to `N#Cc1ccc(COc2cccc(-c3cc(F)c(Cc4nc5ccc(C(=O)O)cc5n4Cc4nccs4)cc3F)n2)c(F)c1` [Example 707], the “Predicted Hepatic Clearance (Pred. Cl.)” value in data set [1] was 4 mL/min/kg. The EC50 at GLP-1R (setting [2]) came out at 4.81 nM.
The matching figures for `CO[C@@H]1CCC[C@@H]1n1c(Cc2cc(F)c(-c3cccc(OCc4ccc(C#N)cc4F)n3)cc2F)nc2ccc(C(=O)O)cc21` [Example 708]: 7.5 mL/min/kg and 0.64 nM.
The matching figures for `CO[C@H]1CCC[C@@H]1n1c(Cc2cc(F)c(-c3cccc(OCc4ccc(C#N)cc4F)n3)cc2F)nc2ccc(C(=O)O)cc21` [Example 709]: 8.83 mL/min/kg and 4.77 nM.
Take `N#Cc1ccc(COc2cccc(-c3cc(F)c(Cc4nc5ccc(C(=O)O)cc5n4[C@H]4CCC[C@@]45CCCO5)cc3F)n2)c(F)c1` [Example 710]: the “Predicted Hepatic Clearance (Pred. Cl.)” value in data set [1] was 11 mL/min/kg. In addition, the EC50 at GLP-1R (setting [2]) is 1.45 nM.
For `CO[C@@H]1COC[C@@H]1n1c(Cc2cc(F)c(-c3cccc(OCc4ccc(C#N)cc4F)n3)cc2F)nc2ccc(C(=O)O)cc21` [Example 711] the same measures were 6.33 mL/min/kg and 0.08 nM.
The matching figures for `CO[C@H]1COC[C@@H]1n1c(Cc2cc(F)c(-c3cccc(OCc4ccc(C#N)cc4F)n3)cc2F)nc2ccc(C(=O)O)cc21` [Example 712]: 6.83 mL/min/kg and 2.55 nM.
`N#Cc1ccc(COc2cccc(-c3cc(F)c(Cc4nc5ccc(C(=O)O)cc5n4CC4(F)CCOCC4)cc3F)n2)c(F)c1` [Example 713]: the “Predicted Hepatic Clearance (Pred. Cl.)” value in data set [1] was 2.5 mL/min/kg. Besides, on GLP-1R (setting [2]), the half-maximal effective concentration (EC50) was found to be 5.76 nM.
For `CC12CCC(Cn3c(Cc4cc(F)c(-c5cccc(OCc6ccc(C#N)cc6F)n5)cc4F)nc4ccc(C(=O)O)cc43)(C1)OC2` (stereo not drawn) [Example 714] the same measures were 1.83 mL/min/kg and 24.9 nM.
For `COC(Cn1c(Cc2cc(F)c(-c3cccc(OCc4ccc(C#N)cc4F)n3)cc2F)nc2ccc(C(=O)O)cc21)C(F)(F)F` (stereo not drawn) [Example 715] the same measures were 2 mL/min/kg and 4.01 nM.
The matching figures for `COC[C@@H](c1ccccc1)n1c(Cc2cc(F)c(-c3cccc(OCc4ccc(C#N)cc4F)n3)cc2F)nc2ccc(C(=O)O)cc21` [Example 716]: 2.17 mL/min/kg and 2740 nM.
As for `COC[C@H](c1ccccc1)n1c(Cc2cc(F)c(-c3cccc(OCc4ccc(C#N)cc4F)n3)cc2F)nc2ccc(C(=O)O)cc21` [Example 717], the “Predicted Hepatic Clearance (Pred. Cl.)” value in data set [1] is 7.5 mL/min/kg. On GLP-1R (setting [2]), the EC50 worked out at 41.5 nM.
For `N#CCC1(Cn2c(Cc3cc(F)c(-c4cccc(OCc5ccc(C(F)F)cc5F)n4)cc3F)nc3ccc(C(=O)O)cc32)CC1` [Example 718] the same measures were 1.83 mL/min/kg and 0.05 nM.
For `O=C(O)c1ccc2nc(Cc3cc(F)c(-c4cccc(OCc5ccc(C(F)F)cc5F)n4)cc3F)n(CC3(CF)CC3)c2c1` [Example 719] the same measures were 1.83 mL/min/kg and 0.37 nM.
The matching figures for `N#Cc1ccc(COc2cccc(-c3cc(F)c(Cc4nc5ccc(C(=O)O)cc5n4[C@@H]4C[C@H]4C(F)F)cc3F)n2)c(F)c1` [Example 720]: 5.33 mL/min/kg and 27.8 nM.
In the case of `CC(C)(Cn1c(Cc2cc(F)c(-c3cccc(OCc4ccc(C#N)cc4F)n3)cc2F)nc2ccc(C(=O)O)cc21)OC(F)F` [Example 721], the “Predicted Hepatic Clearance (Pred. Cl.)” value in data set [1] was 7.83 mL/min/kg. The EC50 on GLP-1R (setting [2]) stood at 1.31 nM.
For the compound `C[C@H](O)Cn1c(Cc2cc(F)c(-c3cccc(OCc4ccc(C#N)cc4F)n3)cc2F)nc2ccc(C(=O)O)cc21` [Example 723], the “Predicted Hepatic Clearance (Pred. Cl.)” value in data set [1] was 3.5 mL/min/kg. For the same compound, at GLP-1R (EC50 (nM)), the EC50 is 5.19 nM.
For `C[C@@H](O)Cn1c(Cc2cc(F)c(-c3cccc(OCc4ccc(C#N)cc4F)n3)cc2F)nc2ccc(C(=O)O)cc21` [Example 724] the same measures were 6.67 mL/min/kg and 15.1 nM.
Regarding `CO[C@@H]1CCCC[C@@H]1n1c(Cc2cc(F)c(-c3cccc(OCc4ccc(C#N)cc4F)n3)cc2F)nc2ccc(C(=O)O)cc21` [Example 725], the “Predicted Hepatic Clearance (Pred. Cl.)” value in data set [1] is 9.5 mL/min/kg. Further, the 50% effective concentration (EC50) on GLP-1R (setting [2]) is 3.68 nM.
For `COC[C@@H](CF)n1c(Cc2cc(F)c(-c3cccc(OCc4ccc(C#N)cc4F)n3)cc2F)nc2ccc(C(=O)O)cc21` [Example 726] the same measures were 5.5 mL/min/kg and 7.26 nM.
The matching figures for `COC[C@H](CF)n1c(Cc2cc(F)c(-c3cccc(OCc4ccc(C#N)cc4F)n3)cc2F)nc2ccc(C(=O)O)cc21` [Example 727]: 5.5 mL/min/kg and 46.3 nM.
For `N#Cc1ccc(COc2cccc(-c3cc(F)c(Cc4nc5ccc(C(=O)O)cc5n4C4CC5(COC5)C4)cc3F)n2)c(F)c1` [Example 728] the same measures were 8.33 mL/min/kg and 93.6 nM.
For the compound `N#Cc1ccc(COc2cccc(-c3cc(F)c(Cc4nc5ccc(C(=O)O)cc5n4CC4(F)CC4)cc3F)n2)c(F)c1` [Example 729], the “Predicted Hepatic Clearance (Pred. Cl.)” value in data set [1] is 1.83 mL/min/kg. For the same compound, on GLP-1R (setting [2]), the EC50 came out at 1.03 nM.
For `N#Cc1ccc(COc2cccc(-c3cc(F)c(Cc4nc5ccc(C(=O)O)cc5n4CC4(COC(F)F)CC4)cc3F)n2)c(F)c1` [Example 730] the same measures were 1.83 mL/min/kg and 0.98 nM.
For `COC[C@H]1C[C@H](n2c(Cc3cc(F)c(-c4cccc(OCc5ccc(C#N)cc5F)n4)cc3F)nc3ccc(C(=O)O)cc32)C1` [Example 731], the “Predicted Hepatic Clearance (Pred. Cl.)” value in data set [1] was 10.3 mL/min/kg. On GLP-1R (setting [2]), the EC50 turned out to be 290 nM.
For the compound `COCC(COC)n1c(Cc2cc(F)c(-c3cccc(OCc4ccc(C#N)cc4F)n3)cc2F)nc2ccc(C(=O)O)cc21` [Example 732], the “Predicted Hepatic Clearance (Pred. Cl.)” value in data set [1] is 8.17 mL/min/kg. Further, the half-maximal effective concentration (EC50) at GLP-1R (setting [2]) turned out to be 169 nM.
For `N#Cc1ccc(COc2cccc(-c3cc(F)c(Cc4nc5ccc(C(=O)O)cc5n4CC4(O)CC4)cc3F)n2)c(F)c1` [Example 733] the same measures were 3.83 mL/min/kg and 2.47 nM.
For `COC[C@H]1C[C@@H](n2c(Cc3cc(F)c(-c4cccc(OCc5ccc(C#N)cc5F)n4)cc3F)nc3ccc(C(=O)O)cc32)C1` [Example 734] the same measures were 8 mL/min/kg and 168 nM.

The values are drawn from patent US11702404B2, “GLP-1R modulating compounds” (priority 2019, dated 2023).
